# Data taken from patent US9469615B2, “Quinoxalines and AZA-quinoxalines as CRTH2 receptor modulators” (Merck Sharp & Dohme Corp., priority 2010, dated 2016).
# Target: T1, hCRTH2 (Homo sapiens, UniProt Q9Y5Y4)
# T1 construct: expressed in transfected cells; host or cells: HEK (human embryonic kidney) cells expressing hCRTH2; membrane preparation
# T1 sequence (Q9Y5Y4 1-395): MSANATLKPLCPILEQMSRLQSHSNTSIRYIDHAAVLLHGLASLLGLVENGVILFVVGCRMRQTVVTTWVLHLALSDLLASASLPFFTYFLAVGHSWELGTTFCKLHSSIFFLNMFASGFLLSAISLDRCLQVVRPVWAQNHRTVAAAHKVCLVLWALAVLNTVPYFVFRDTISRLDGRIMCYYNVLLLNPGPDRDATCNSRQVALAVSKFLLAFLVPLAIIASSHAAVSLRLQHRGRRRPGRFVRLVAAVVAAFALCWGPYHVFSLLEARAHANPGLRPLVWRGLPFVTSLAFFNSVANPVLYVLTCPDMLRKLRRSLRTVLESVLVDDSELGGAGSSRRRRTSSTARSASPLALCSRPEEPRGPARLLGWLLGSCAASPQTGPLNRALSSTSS
# Experiment: Radioligand binding assay ([3H]PGD2 competition, HEK-hCRTH2 membranes)
# Conditions: [3H]PGD2 binding, rated A-E (Table A)
# Method in brief: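 Membranes (8-20 μg protein) from HEK-hCRTH2 cells were incubated 60 min at room temperature with 3.0 nM [3H]PGD2 in 50 mM Tris-HCl pH 7.4, 1 mM EDTA, 2 mM MnCl2, 1% DMSO. Non-specific binding defined with 10 μM PGD2. Bound radioactivity counted after filtration.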
row,SMILES,Ki [nM]
1,"O=C(O)CCCCc1nc2cc(C(=O)N[C@@H]3CCCc4cc(Cl)ccc43)ccc2nc1-c1ccccc1 [compound 255, 7-[[(6-chloro-1,2,3,4-tetrahydro-1(R)-naphthalenyl)amino)carbonyl]-3-phenyl-2-quinoxalinepentanoic acid]",0.1 to 2
2,"C[C@@H](NC(=O)c1ccc2nc(-c3ccc(Cl)cc3)c(CCCCC(=O)O)nc2c1)c1ccc(Cl)cc1 [16AD, 3-(4-chlorophenyl)-7-[[[(R)-(4-chlorophenyl)ethyl]amino]carbonyl]-2-quinoxalinepentanoic acid]",0.1 to 2
3,"O=C(O)CCCCc1nc2cc(NS(=O)(=O)Cc3ccccc3)ccc2nc1-c1ccccc1 [compound 12, 5-{7-[(benzylsulfonyl)amino]-3-phenylquinoxalin-2-yl}pentanoic Acid]",201 to 700
4,"O=C(O)CCCCc1nc2cc(C(=O)Nc3ccccc3F)ccc2nc1-c1cccc(F)c1 [3V, 3-(3-fluoropheny)-7-[[(2-fluorophenyl)amino]carbonyl]-2-quinoxalinepentanoic acid]",201 to 700

# Further lines, results first:
row,Ki [nM],SMILES
1,0.1 to 2,"CC(CCc1nc2cc(C(=O)N3CC(c4ccccc4)C3)ccc2nc1-c1ccc(C(F)(F)F)cc1)CC(=O)O (stereo not drawn) [17W, beta-methyl-7-[(3-phenyl-1-azetidinyl)carbonyl]-3-[4-(trifluoromethyl)phenyl]-2-quinoxalinepentanoic acid]"
2,2.1 to 20,"O=C(O)CCCCc1nc2cc(C(=O)N[C@@H]3CCCc4cc(F)ccc43)ccc2nc1-c1ccccc1 [compound 40, (R)-5-(7-((6-fluoro-1,2,3,4-tetrahydronaphthalen-1-yl)carbamoyl)-3-phenylquinoxalin-2-yl)pentanoic acid]"
3,2.1 to 20,"O=C(O)CCCCc1nc2cc(C(=O)N3CCC(c4ccccc4)C3)ccc2nc1-c1cccc(F)c1 (stereo not shown) [26E, 3-(3-fluorophenyl)-7-[(3-phenyl-1-pyrrolidinyl)carbonyl]-2-quinoxalinepentanoic acid]"
4,2.1 to 20,"O=C(O)CCCNc1nc2cc(C(=O)N3CCC(c4ccc(F)cc4)CC3)ccc2nc1-c1ccccc1 [44J, 4-((7-(4-(4-fluorophenyl)piperidine-1-carbonyl)-3-phenylquinoxalin-2-yl)amino)butanoic acid]"
5,0.1 to 2,"N#Cc1ccc(C2CN(C(=O)c3ccc4nc(-c5ccc(F)cc5)c(CCCCC(=O)O)nc4c3)C2)cc1 [compound 246, 7-[[3-(4-cyanophenyl)-1-azetidinyl]carbonyl]-3-(4-fluorophenyl)-2-quinoxalinepentanoic acid]"
6,2.1 to 20,"CC(CCc1nc2cc(C(=O)NCc3ccc(C#N)cc3)ccc2nc1-c1ccc(C(F)(F)F)cc1)CC(=O)O (stereo not drawn) [17Z, 7-[[[(4-cyanophenyl)methyl]amino]carbonyl]-beta-methyl-3-[4-(trifluoromethyl)phenyl]-2-quinoxalinepentanoic acid]"
7,0.1 to 2,"O=C(O)CCCCc1nc2cc(C(=O)N[C@@H]3CCc4cc(F)ccc43)ccc2nc1-c1ccc(F)cc1 [compound 223, 7-[[(5-fluoro-2,3-dihydro-1H-inden-1(R)-yl)amino]carbonyl]-3-(4-fluorophenyl)-2-quinoxalinepentanoic acid]"

# Same assay, conditions: [3H]PGD2 binding, values in text
row,Ki [nM],SMILES
1,1.5,"O=C(O)CCCCc1nc2cc(C(=O)N[C@@H]3CCCc4cc(Cl)ccc43)ccc2nc1-c1ccccc1 [compound 255, 7-[[(6-chloro-1,2,3,4-tetrahydro-1(R)-naphthalenyl)amino)carbonyl]-3-phenyl-2-quinoxalinepentanoic acid]"
2,1.9,"N#Cc1ccc(C2CN(C(=O)c3ccc4nc(-c5ccc(F)cc5)c(CCCCC(=O)O)nc4c3)C2)cc1 [compound 246, 7-[[3-(4-cyanophenyl)-1-azetidinyl]carbonyl]-3-(4-fluorophenyl)-2-quinoxalinepentanoic acid]"

# Same assay, conditions: [3H]PGD2 competition, Table B
row,SMILES,Ki [nM]
1,O=C(O)Cc1cc(F)cc(CCc2nc3cc(C(=O)NCc4ccc(Cl)cc4)ccc3nc2-c2ccc(Cl)cc2)c1 [compound 446],2.1 to 20
2,C[C@H](CCCc1nc2cc(C(=O)N[C@H](C)c3ccc(F)cc3)ccc2nc1-c1ccc(F)cc1)C(=O)O [compound 479],20.1 to 200
3,"C[C@H](CCCc1nc2cc(C(=O)N[C@@H](C)c3ccc(F)cc3)ccc2nc1-c1ccc(F)cc1)C(=O)O [compound 481, (R)-5-(3-(4-fluorophenyl)-7-(((S)-1-(4-fluorophenyl)ethyl)carbamoyl)quinoxalin-2-yl)-2-methylpentanoic acid]",20.1 to 200
4,"O=C(O)CCCCc1nc2cc(C(=O)N[C@@H]3CCCc4ccccc43)c(F)cc2nc1-c1ccc(Cl)cc1 [compound 718, (R)-5-(3-(4-chlorophenyl)-6-fluoro-7-((1,2,3,4-tetrahydronaphthalen-1-yl)carbamoyl)quinoxalin-2-yl)pentanoic acid]",2.1 to 20
5,"C[C@@H](CCCc1nc2cc(C(=O)N[C@H](C)c3ccc(Cl)cc3)ccc2nc1-c1ccc(F)cc1)C(=O)O [compound 517, (S)-5-(7-(((R)-1-(4-chlorophenyl)ethyl)carbamoyl)-3-(4-fluorophenyl)quinoxalin-2-yl)-2-methyl-pentanoic acid]",2.1 to 20
6,"Cn1cc(N2CCN(C(=O)c3ccc4nc(-c5ccc(Cl)cc5)c(CCCCC(=O)O)nc4c3)CC2)cn1 [compound 671, 5-(3-(4-chlorophenyl)-7-(4-(1-methyl-1H-pyrazol-4-yl)piperazine-1-carbonyl)quinoxalin-2-yl)pentanoic acid]",20.1 to 200
7,"CCCCN(CCC)C(=O)c1ccc2nc(-c3ccc(Cl)cc3)c(CCCCC(=O)O)nc2c1 [compound 611, 5-(7-(butyl(propyl)carbamoyl)-3-(4-chlorophenyl)quinoxalin-2-yl)pentanoic acid]",2.1 to 20
8,"O=C(N[C@@H]1CCCc2ccccc21)c1ccc2nc(-c3ccc(F)cc3)c(CC[C@H]3C[C@@H]3C(=O)O)nc2c1 [compound 262, (1S,2S)-2-(2-(3-(4-fluorophenyl)-7-(((R)-1,2,3,4-tetrahydronaphthalen-1-yl)carbamoyl)quinoxalin-2-yl)ethyl)cyclopropanecarboxylic acid]",2.1 to 20
9,"O=C(O)CCCCc1nc2cc(C(=O)N3CCN(C4CCCCC4)C(=O)C3)ccc2nc1-c1ccc(Cl)cc1 [compound 678, 5-(3-(4-chlorophenyl)-7-(4-cyclohexyl-3-oxo-piperazine-1-carbonyl)quinoxalin-2-yl)pentanoic acid]",2.1 to 20
10,"C[C@@H](NC(=O)c1cc2nc(CCCCC(=O)O)c(-c3ccccc3)nc2cc1F)c1ccc(F)cc1 [compound 727, (R)-5-(6-fluoro-7-((1-(4-fluorophenyl)ethyl)carbamoyl)-3-phenylquinoxalin-2-yl)pentanoic acid]",2.1 to 20

# The next lines start with the values.
row,Ki [nM],SMILES
1,0.1 to 2,"O=C(O)CCCCc1nc2cc(C(=O)N[C@H]3CCc4cc(F)ccc43)ccc2nc1-c1ccc(Cl)cc1 [compound 382, (S)-5-(3-(4-chlorophenyl)-7-((5-fluoro-2,3-dihydro-1H-inden-1-yl)carbamoyl)quinoxalin-2-yl)pentanoic acid]"
2,2.1 to 20,"O=C(O)CCCCc1nc2cc(C(=O)N3CCO[C@H](c4ccc(F)cc4)C3)ccc2nc1-c1ccc(Cl)cc1 [compound 614, (R)-5-(3-(4-chlorophenyl)-7-(2-(4-fluorophenyl)morpholine-4-carbonyl)quinoxalin-2-yl)pentanoic acid]"
3,0.1 to 2,"N#Cc1cccnc1N1CCN(C(=O)c2ccc3nc(-c4ccc(Cl)cc4)c(CCCCC(=O)O)nc3c2)CC1 [compound 595, 5-(3-(4-chlorophenyl)-7-(4-(3-cyanopyridin-2-yl)piperazine-1-carbonyl)quinoxalin-2-yl)pentanoic acid]"
4,0.1 to 2,"C[C@@H](NC(=O)c1ccc2nc(-c3ccc(Cl)cc3)c(CCCCC(=O)O)nc2c1)c1ccc(C#N)cc1 [compound 403, (R)-5-(3-(4-chlorophenyl)-7-((1-(4-cyanophenyl)ethyl)carbamoyl)quinoxalin-2-yl)pentanoic acid]"
5,2.1 to 20,"O=C(O)CCCCc1nc2cc(C(=O)N3CCc4ccccc4C3)ccc2nc1-c1ccc(Cl)cc1 [compound 603, 5-(3-(4-chlorophenyl)-7-(1,2,3,4-tetrahydroisoquinoline-2-carbonyl)quinoxalin-2-yl)pentanoic acid]"
